Measurements: the supplement of paper PMC10307832

Assays:
Assay in all cases: relative viability (nuclei count vs DMSO), 5 days (fraction); higher = more cells survive
[1] = compound: CCOC1=CC=CC=C1N=NC2=C(NN(C2=O)C3=NC(=CS3)C4=CC=CC=C4)C [BAM7] + CC(C)C[C@H](NC(=O)[C@H](Cc1ccccc1)NC(=O)c1cnccn1)B(O)O [Bortezomib] (partner 0.002 µM)
Method in brief: (§1)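 Five library-drug doses in √10 steps were combined with a fixed anchor-drug dose, or a single drug was given alone, by pin tool to lung cancer cell lines in 1536-well plates the day after seeding. Nuclei were stained and counted after 5 days. Relative viability is the nuclei count in treated wells over that in vehicle wells, taken as the median of duplicate plates.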

[2] = compound: CCOC1=CC=CC=C1N=NC2=C(NN(C2=O)C3=NC(=CS3)C4=CC=CC=C4)C [BAM7] + CS(=O)(=O)N1CCN(Cc2cc3nc(-c4cccc5[nH]ncc45)nc(N4CCOCC4)c3s2)CC1 [Pictilisib] (partner 1 µM)
Method in brief: as §1

[3] = compound: CCOC1=CC=CC=C1N=NC2=C(NN(C2=O)C3=NC(=CS3)C4=CC=CC=C4)C [BAM7] + O=C(c1cc(Cc2n[nH]c(=O)c3ccccc23)ccc1F)N1CCN(C(=O)C2CC2)CC1 [Olaparib] (partner 8 µM)
Method in brief: as §1

[4] = compound: CCn1c(-c2nonc2N)nc2c(C#CC(C)(C)O)ncc(OC[C@H]3CCCNC3)c21 + Cc1nc(Nc2ncc(C(=O)Nc3c(C)cccc3Cl)s2)cc(N2CCN(CCO)CC2)n1 [Dasatinib] (partner 0.075 µM)
Method in brief: as §1

| Cell Line | relative viability ([1]; first compound 0.5 µM) | relative viability ([1]; first compound 5 µM) | relative viability ([1]; first compound 15.81 µM) | relative viability ([1]; first compound 50 µM) | relative viability ([2]; first compound 0.5 µM) | relative viability ([2]; first compound 5 µM) | relative viability ([2]; first compound 15.81 µM) | relative viability ([2]; first compound 50 µM) | relative viability ([3]; first compound 0.5 µM) | relative viability ([3]; first compound 5 µM) | relative viability ([3]; first compound 15.81 µM) | relative viability ([3]; first compound 50 µM) | relative viability ([4]; first compound 0.01 µM) | relative viability ([4]; first compound 0.03162 µM) | relative viability ([4]; first compound 0.1 µM) | relative viability ([4]; first compound 0.3162 µM) | relative viability ([4]; first compound 1 µM) |
| --- | --- | --- | --- | --- | --- | --- | --- | --- | --- | --- | --- | --- | --- | --- | --- | --- | --- |
| HCC-44 | 1.01 | 0.921 | 0.879 | 0.838 | 0.593 | 0.65 | 0.534 | 0.634 | 0.986 | 0.952 | 0.883 | 0.987 | – | – | – | – | – |
| HCC-78 | 0.586 | 0.63 | 0.419 | 0.608 | 0.178 | 0.177 | 0.213 | 0.245 | 1.02 | 0.759 | 0.631 | 0.815 | 0.344 | 0.361 | 0.423 | 0.291 | 0.389 |
| HCC-366 | 1.09 | 1.11 | 1.08 | 1.08 | 0.163 | 0.163 | 0.141 | 0.0939 | 0.328 | 0.263 | 0.226 | 0.307 | 0.597 | 0.6 | 0.602 | 0.593 | 0.606 |
| HCC-827 | 1.1 | 1.17 | 1.05 | 0.917 | 0.969 | 0.908 | 0.877 | 0.977 | 0.0377 | 0.627 | 0.62 | 0.649 | 0.242 | 0.34 | 0.296 | 0.354 | 0.335 |
| HOP-62 | 0.854 | 0.98 | 1.05 | 0.847 | 0.664 | 0.729 | 0.742 | 0.799 | 0.517 | 0.33 | 0.449 | 0.518 | 0.64 | 0.587 | 0.66 | 0.659 | 0.607 |
| IA-LM | 0.789 | 0.98 | 0.756 | 0.777 | 0.356 | 0.306 | 0.37 | 0.392 | 0.912 | 0.794 | 0.797 | 0.775 | – | – | – | – | – |
| LC-2-ad | 1.05 | 0.974 | 0.957 | 1 | 0.581 | 0.222 | 0.383 | 0.427 | 0.676 | 0.633 | 0.634 | 0.646 | 0.384 | 0.487 | 0.509 | 0.414 | 0.641 |
| LK-2 | – | – | – | – | 0.595 | 0.663 | 0.598 | 0.546 | 0.885 | 0.891 | 0.918 | 0.666 | 0.252 | 0.275 | – | – | 0.406 |
| NCI-H358 | – | – | – | – | 0.296 | 0.366 | 0.327 | 0.359 | – | 0.535 | 0.547 | 0.608 | 0.196 | 0.19 | 0.169 | 0.135 | 0.183 |
| NCI-H522 | – | – | – | – | – | – | – | – | 0.725 | 0.585 | 0.61 | 0.643 | 0.796 | 0.949 | 0.845 | 0.718 | 0.998 |
| NCI-H1299 | 1.02 | 1.04 | 1.03 | 0.963 | 0.675 | 0.779 | 0.782 | 0.824 | 0.961 | 1.02 | 0.981 | 0.923 | – | – | – | – | – |
| NCI-H1395 | – | – | – | – | 0.612 | 0.714 | 0.702 | 0.683 | 0.492 | 0.472 | 0.445 | 0.425 | 0.448 | 0.387 | 0.395 | 0.393 | 0.386 |
| NCI-H1563 | 0.972 | 0.82 | 0.899 | 1.06 | 0.651 | 0.714 | 0.642 | 0.639 | – | – | – | – | 0.449 | 0.437 | 0.441 | 0.511 | 0.446 |
| NCI-H1648 | – | – | – | – | – | – | – | – | 0.772 | 0.799 | 0.322 | 0.558 | – | – | – | – | – |
| NCI-H1703 | 0.428 | 0.304 | 0.164 | 0.338 | 0.23 | 0.262 | – | 0.256 | 0.497 | 0.454 | 0.357 | 0.62 | – | – | – | – | – |
| NCI-H1793 | – | – | – | – | 0.445 | 0.3 | 0.317 | 0.358 | 0.926 | 0.882 | 0.791 | 0.95 | 0.361 | 0.406 | 0.399 | 0.359 | 0.421 |
| NCI-H1944 | – | – | – | – | 0.344 | 0.384 | 0.332 | 0.346 | 0.345 | 0.391 | 0.326 | 0.436 | 0.215 | 0.224 | 0.213 | 0.212 | 0.212 |
| NCI-H2170 | – | – | – | – | 0.268 | 0.3 | 0.271 | 0.314 | 0.497 | 0.447 | 0.439 | 0.476 | 0.566 | 0.532 | 0.57 | 0.535 | 0.516 |
| NCI-H2342 | – | – | – | – | – | – | – | – | 0.49 | 0.46 | 0.347 | 0.341 | 0.286 | 0.304 | 0.32 | 0.317 | 0.33 |
| SK-MES-1 | – | – | – | – | 0.432 | 0.455 | 0.369 | 0.358 | 0.82 | 0.703 | 0.613 | 0.704 | 0.359 | 0.386 | 0.446 | 0.447 | 0.373 |
| SW 900 | – | – | – | – | – | – | – | – | – | 0.847 | – | 0.786 | 0.731 | 0.527 | 0.566 | 0.544 | 0.538 |
